From patent publication US12186337B2 (priority 2009, dated 2025)

Conditions: pH 10

## O=NO [sodium nitrite]
  pH of 10% solution at 25° C.: 7.9
